The record followed here is patent US10407409B2, “6-(5-hydroxy-1H-pyrazol-1-yl)nicotinamide inhibitors of PHD” (Takeda Pharmaceutical Company Limited, priority 2013, dated 2019).

For assay [1], the system named is HIF1a protein in H9c2 rat cardiomyocytes. The assay is described as follows: Cell-based HIF-alpha stabilization assay (inhibition of PHD in cells). The note with it: Rattus norvegicus, H9c2, 24 h, 24 hrs compound incubation, HIF1a protein by ELISA, read-out: Inhibition of PHD in cells (pEC50) (converted). The method in brief: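 HIF1a stabilization was measured by ELISA on lysates of H9c2 rat cardiomyocytes after 24 h exposure to 11 serial compound concentrations, expressed relative to the desferrioxamine maximum. Curve fits gave EC50. EC50pos denotes the concentration producing half the desferrioxamine maximal response.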

Assay [2] has as its target PHD2 enzyme (residues 181-417) (Homo sapiens (Human), UniProt Q9GZT9). The assay is described as follows: Inhibition of PHD enzyme (LC/MS peptide hydroxylation assay). Format: biochemical. The following applies: PHD2 (residues 181-417) 5 nM, 60 min pre-incubation; -log(IC50), IC50 molar. The method in brief:
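Hydroxylated peptide quantified by LC/MS after 60 min turnover of 1 uM biotinylated peptide with 2 uM 2-oxoglutarate and 1 mM ascorbate, stopped by excess tight-binding inhibitor. Beforehand, 5 nM enzyme and compound were preincubated 60 min at RT, pH 7.3 HEPES/KCl/TCEP/FeCl2/BSA buffer. Values as pIC50 (−log molar IC50).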

Chain of PHD2 enzyme (residues 181-417) (Q9GZT9 181-417): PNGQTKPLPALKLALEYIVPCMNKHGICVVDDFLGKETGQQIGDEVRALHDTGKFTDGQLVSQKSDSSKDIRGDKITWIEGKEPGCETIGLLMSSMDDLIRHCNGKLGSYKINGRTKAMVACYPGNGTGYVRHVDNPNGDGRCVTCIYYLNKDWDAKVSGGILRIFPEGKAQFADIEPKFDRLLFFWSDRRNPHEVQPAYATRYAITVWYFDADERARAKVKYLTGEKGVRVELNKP

In the case of `CC(C)CNC(=O)c1ccc(-n2ncc(-c3ccc(C#N)cc3)c2O)nc1` [Example 160, 6-(4-(4-cyanophenyl)-5-hydroxy-1H-pyrazol-1-yl)-N-isobutylnicotinamide], in assay [1], the EC50 is 759 nM. Further, the “PHD Inhibition (pIC50)” value in assay [2] is 6.9.
On to `N#Cc1ccc(-c2cnn(-c3ccc(C(=O)NC4CC4)cn3)c2O)cc1` [Example 161, 6-(4-(4-cyanophenyl)-5-hydroxy-1H-pyrazol-1-yl)-N-cyclopropylnicotinamide], for which, in assay [1], the EC50 is 447 nM. Moreover, the “PHD Inhibition (pIC50)” value in assay [2] amounted to 7.18.
The corresponding values for `CCOCCCNC(=O)c1ccc(-n2ncc(-c3ccc(C#N)cc3)c2O)nc1` [Example 162, 6-(4-(4-cyanophenyl)-5-hydroxy-1H-pyrazol-1-yl)-N-(3-ethoxypropyl)nicotinamide] are 1150 nM and 7.23.
The corresponding values for `CC(C)OCCCNC(=O)c1ccc(-n2ncc(-c3ccc(C#N)cc3)c2O)nc1` [Example 163, 6-(4-(4-cyanophenyl)-5-hydroxy-1H-pyrazol-1-yl)-N-(3-isopropoxypropyl)nicotinamide] are 1480 nM and 7.28.
The corresponding values for `N#Cc1ccc(-c2cnn(-c3ccc(C(=O)N[C@H]4CC[C@@H](O)CC4)cn3)c2O)cc1` [Example 164, 6-(4-(4-cyanophenyl)-5-hydroxy-1H-pyrazol-1-yl)-N-((1 s,4s)-4-hydroxycyclohexyl)nicotinamide] are 525 nM and 7.5.
For the compound `N#Cc1ccc(-c2cnn(-c3ccc(C(=O)N[C@H]4CC[C@H](O)CC4)cn3)c2O)cc1` [Example 165, 6-(4-(4-cyanophenyl)-5-hydroxy-1H-pyrazol-1-yl)-N-((1r,4r)-4-hydroxycyclohexyl)nicotinamide], in assay [1], the EC50 is 251 nM. In addition, the “PHD Inhibition (pIC50)” value in assay [2] was 7.68.
The corresponding values for `COc1cc(-c2cnn(-c3ccc(C(=O)N[C@H]4CC[C@@H](O)CC4)cn3)c2O)ccn1` [Example 166, 6-(5-hydroxy-4-(2-methoxypyridin-4-yl)-1H-pyrazol-1-yl)-N-((1s,4s)-4-hydroxycyclohexyl)nicotinamide] are 437 nM and 7.28.
The matching figures for `COc1cc(-c2cnn(-c3ccc(C(=O)N[C@H]4CC[C@H](O)CC4)cn3)c2O)ccn1` [Example 167, 6-(5-hydroxy-4-(2-methoxypyridin-4-yl)-1H-pyrazol-1-yl)-N-((1r,4r)-4-hydroxycyclohexyl)nicotinamide]: 282 nM and 7.46.
The matching figures for `COCCC1(NC(=O)c2ccc(-n3ncc(-c4ccc(C#N)cc4OC)c3O)nc2)CC1` [Example 168, 6-(4-(4-cyano-2-methoxyphenyl)-5-hydroxy-1H-pyrazol-1-yl)-N-(1-(2-methoxyethyl)cyclopropyl)nicotinamide]: 437 nM and 8.1.
Turning to `C[C@H]1C[C@@H]1NC(=O)c1ccc(-n2ncc(-c3ccc(C#N)cc3)c2O)nc1` [Example 169, 6-(4-(4-cyanophenyl)-5-hydroxy-1H-pyrazol-1-yl)-N-((1s,2s)-2-methylcyclopropyl)nicotinamide], in assay [1], the EC50 is 891 nM. Besides, the “PHD Inhibition (pIC50)” value in assay [2] came to 7.22.
The matching figures for `C[C@@H](NC(=O)c1ccc(-n2ncc(-c3ccc(C#N)cc3)c2O)nc1)C(F)(F)F` [Example 170, (R)-6-(4-(4-cyanophenyl)-5-hydroxy-1H-pyrazol-1-yl)-N-(1,1,1-trifluoropropan-2-yl)nicotinamide]: 2750 nM and 7.29.
For `C[C@H](NC(=O)c1ccc(-n2ncc(-c3ccc(C#N)cc3)c2O)nc1)C(F)(F)F` [Example 171, (S)-6-(4-(4-cyanophenyl)-5-hydroxy-1H-pyrazol-1-yl)-N-(1,1,1-trifluoropropan-2-yl)nicotinamide], the EC50 in assay [1] is 1450 nM. Also, the “PHD Inhibition (pIC50)” value in assay [2] is given as 7.18.
The corresponding values for `C[C@@H](NC(=O)c1ccc(-n2ncc(-c3ccc(C#N)cc3)c2O)nc1)C1CCOCC1` [Example 172, (R)-6-(4-(4-cyanophenyl)-5-hydroxy-1H-pyrazol-1-yl)-N-(1-(tetrahydro-2H-pyran-4-yl)ethyl)nicotinamide] are 1260 nM and 7.33.
The matching figures for `C[C@H](NC(=O)c1ccc(-n2ncc(-c3ccc(C#N)cc3)c2O)nc1)C1CCOCC1` [Example 173, (S)-6-(4-(4-cyanophenyl)-5-hydroxy-1H-pyrazol-1-yl)-N-(1-(tetrahydro-2H-pyran-4-yl)ethyl)nicotinamide]: 1100 nM and 7.21.
Regarding `N#Cc1ccc(-c2cnn(-c3ccc(C(=O)NCCC4CCOCC4)cn3)c2O)cc1` [Example 174, 6-(4-(4-cyanophenyl)-5-hydroxy-1H-pyrazol-1-yl)-N-(2-(tetrahydro-2H-pyran-4-yl)ethyl)nicotinamide], the EC50 in assay [1] was 759 nM. For the same compound, the “PHD Inhibition (pIC50)” value in assay [2] came out at 7.31.
The matching figures for `COCCC(C)(C)NC(=O)c1ccc(-n2ncc(-c3ccc(C#N)cc3)c2O)nc1` [Example 175, 6-(4-(4-cyanophenyl)-5-hydroxy-1H-pyrazol-1-yl)-N-(4-methoxy-2-methylbutan-2-yl)nicotinamide]: 490 nM and 7.37.
The matching figures for `COCCC(C)NC(=O)c1ccc(-n2ncc(-c3ccc(C#N)cc3)c2O)nc1` (stereo not shown) [Example 176, 6-(4-(4-cyanophenyl)-5-hydroxy-1H-pyrazol-1-yl)-N-(4-methoxybutan-2-yl)nicotinamide]: 398 nM and 7.53.
The matching figures for `N#Cc1ccc(-c2cnn(-c3ccc(C(=O)NCCC4CCOC4)cn3)c2O)cc1` (stereo not shown) [Example 177, 6-(4-(4-cyanophenyl)-5-hydroxy-1H-pyrazol-1-yl)-N-(2-(tetrahydrofuran-3-yl)ethyl)nicotinamide]: 309 nM and 7.64.
As for `N#Cc1ccc(-c2cnn(-c3ccc(C(=O)NCCC4CCCOC4)cn3)c2O)cc1` (stereo not shown) [Example 178, 6-(4-(4-cyanophenyl)-5-hydroxy-1H-pyrazol-1-yl)-N-(2-(tetrahydro-2H-pyran-3-yl)ethyl)nicotinamide], in assay [1], the EC50 is 282 nM. In assay [2], the “PHD Inhibition (pIC50)” value is on record as 7.63.
The matching figures for `COCCCCNC(=O)c1ccc(-n2ncc(-c3ccc(C#N)cc3C)c2O)nc1` [Example 179, 6-(4-(4-cyano-2-methylphenyl)-5-hydroxy-1H-pyrazol-1-yl)-N-(4-methoxybutyl)nicotinamide]: 123 nM and 8.3.
The matching figures for `Cc1cc(C#N)ccc1-c1cnn(-c2ccc(C(=O)NCC3CCC3)cn2)c1O` [Example 180, 6-(4-(4-cyano-2-methylphenyl)-5-hydroxy-1H-pyrazol-1-yl)-N-(cyclobutylmethyl)nicotinamide]: 398 nM and 8.2.
The corresponding values for `COC(C)CCNC(=O)c1ccc(-n2ncc(-c3ccc(C#N)cc3C)c2O)nc1` (stereo not shown) [Example 181, 6-(4-(4-cyano-2-methylphenyl)-5-hydroxy-1H-pyrazol-1-yl)-N-(3-methoxybutyl)nicotinamide] are 324 nM and 8.2.
Turning to `COCC(C)CNC(=O)c1ccc(-n2ncc(-c3ccc(C#N)cc3C)c2O)nc1` (stereo not shown) [Example 182, 6-(4-(4-cyano-2-methylphenyl)-5-hydroxy-1H-pyrazol-1-yl)-N-(3-methoxy-2-methylpropyl)nicotinamide], in assay [1], the EC50 is 309 nM. In assay [2], the “PHD Inhibition (pIC50)” value turned out to be 8.1.
The matching figures for `Cc1cc(C#N)ccc1-c1cnn(-c2ccc(C(=O)N[C@H]3CC[C@H](C)CC3)cn2)c1O` [Example 183, 6-(4-(4-cyano-2-methylphenyl)-5-hydroxy-1H-pyrazol-1-yl)-N-((1r,4r)-4-methylcyclohexyl)nicotinamide]: 646 nM and 7.9.
The corresponding values for `COC1CN(C(=O)c2ccc(-n3ncc(-c4ccc(C#N)cc4C)c3O)nc2)C1` [Example 184, 4-(5-hydroxy-1-(5-(3-methoxyazetidine-1-carbonyl)pyridin-2-yl)-1H-pyrazol-4-yl)-3-methylbenzonitrile] are 214 nM and 8.1.
The corresponding values for `Cc1cc(C#N)ccc1-c1cnn(-c2ccc(C(=O)N3CC4(COC4)C3)cn2)c1O` [Example 185, 4-(1-(5-(2-oxa-6-azaspiro[3.3]heptane-6-carbonyl)pyridin-2-yl)-5-hydroxy-1H-pyrazol-4-yl)-3-methylbenzonitrile] are 562 nM and 8.
With `Cc1cc(C#N)ccc1-c1cnn(-c2ccc(C(=O)NC3CN(C)C3)cn2)c1O` [Example 186, 6-(4-(4-cyano-2-methylphenyl)-5-hydroxy-1H-pyrazol-1-yl)-N-(1-methylazetidin-3-yl)nicotinamide], the EC50 in assay [1] was 295 nM. Further, the “PHD Inhibition (pIC50)” value in assay [2] is reported as 7.8.
The corresponding values for `Cc1cc(C#N)ccc1-c1cnn(-c2ccc(C(=O)NC(C)(C)CN(C)C)cn2)c1O` [Example 187, 6-(4-(4-cyano-2-methylphenyl)-5-hydroxy-1H-pyrazol-1-yl)-N-(1-(dimethylamino)-2-methylpropan-2-yl)nicotinamide] are 355 nM and 7.8.
For `N#Cc1ccc(-c2cnn(-c3ccc(C(=O)NCc4ccccc4)cn3)c2O)cc1F` [Example 188, N-benzyl-6-(4-(4-cyano-3-fluorophenyl)-5-hydroxy-1H-pyrazol-1-yl)nicotinamide], the EC50 in assay [1] is 5250 nM. The “PHD Inhibition (pIC50)” value in assay [2] is 7.3.
